According to ChEMBL document CHEMBL1148986, “Scalarane metabolites of the nudibranch Glossodoris rufomarginata and Its dietary sponge from the South China Sea” (J Nat Prod, 2004):

System: Gambusia affinis
Experiment: Ichthyotoxicity against Gambusia affinis at 10 ppm
Assay type: organism-based
Conditions: in vivo; call rule not given here

Structure (SMILES) | Activity
CC1(C)CCC[C@]2(C)[C@H]3CC(=O)[C@]4(C)[C@@H]5C(=CC[C@H]4[C@]3(C)CC[C@@H]12)CO[C@H]5O | Toxic
CC(=O)O[C@@H]1OCC2=CC[C@H]3[C@]4(C)CC[C@H]5C(C)(C)CCC[C@]5(C)[C@H]4CC(=O)[C@]3(C)[C@H]21 | Toxic
CC1(C)CCC[C@]2(C)[C@H]3CC(=O)[C@]4(C)[C@@H](C=O)C(C=O)=CC[C@H]4[C@]3(C)CC[C@@H]12 | Toxic
CC(=O)O[C@H]1C[C@@H]2[C@@]3(C)CCCC(C)(C)[C@@H]3CC[C@@]2(C)[C@@H]2CC=C3CO[C@@H](O)[C@@H]3[C@@]12C | Toxic
CC1(C)CCC[C@]2(C)[C@H]3C[C@H](O)[C@]4(C)[C@@H](C=O)C(C=O)=CC[C@H]4[C@]3(C)CC[C@@H]12 | Toxic
CC(=O)O[C@@H]1OCC2=CC[C@H]3[C@]4(C)CC[C@H]5C(C)(C)CCC[C@]5(C)[C@H]4C[C@H](OC(C)=O)[C@]3(C)[C@H]21 [DEOXOSCALARIN ACETATE] | Not Active
CC(=O)O[C@H]1C[C@@H]2[C@@]3(C)CCCC(C)(C)[C@@H]3CC[C@@]2(C)[C@@H]2CC=C(C=O)[C@H](C=O)[C@@]12C [SCALARADIAL] | Toxic
